According to patent publication US12319655B2, “RAF kinase inhibitors and methods of use thereof” (Deciphera Pharmaceuticals, LLC, priority 2021, dated 2025):

Columns and labels:
[1] = target: B-Raf kinase (SEQ. ID NO: 2) (Homo sapiens (Human), UniProt P15056); experiment: Biochemical Assay for B-Raf (1); details: Table J, assay version (1); read-out: BRAF (1) IC50
Summary of the method: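 Continuous PK/LDH-coupled NADH oxidation assay, A340 read for 6 h at 30° C., with 0.13 nM B-Raf, 30.1 nM MEK substrate and 1 mM ATP in Tris pH 7.5, MgCl2, DTT, detergents, 1% DMSO. Rate taken from 4–5 h window; percent inhibition vs no-compound and known-inhibitor controls; four-parameter fit gives IC50.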

[2] = target: C-Raf kinase (SEQ. ID NO: 3) (Homo sapiens (Human), UniProt P04049, Y340D/Y341D); experiment: Biochemical Assay for C-Raf (1); details: Table J, assay version (1); read-out: CRAF (1) IC50
Summary of the method: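 Coupled pyruvate kinase/LDH assay tracking NADH oxidation at 340 nm, with 0.43 nM C-Raf, 30.1 nM MEK and 1 mM ATP in pH 7.5 Tris buffer (15 mM MgCl2, 1% DMSO final). Read continuously for 6 h at 30 °C, rate taken from the 4–5 h window. IC50 from four-parameter fit of percent inhibition.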

[3] = target: B-Raf (V600E) (SEQ. ID NO: 4) kinase (Homo sapiens (Human), UniProt P15056, V600E); experiment: Biochemical Assay for B-Raf (V600E) (1); details: Table J, BRAF V600E, assay version (1); read-out: BRAF VE (1) IC50
Summary of the method: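 Coupled pyruvate kinase/lactate dehydrogenase assay: 0.03 nM B-Raf V600E, 30.1 nM MEK, 1 mM ATP, pH 7.5 Tris/MgCl2 buffer, 1% DMSO. NADH oxidation followed at 340 nm for 6 h at 30 °C; rate from 3–4 h converted to percent inhibition, IC50 by four-parameter fit.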

[4] = test system: H2405 cells; experiment: H2405 Cell Proliferation Assay (1); format: cell-based; details: Homo sapiens, NCI-H2405
Summary of the method: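 Viability was read by resazurin reduction (ex 540 nm, em 600 nm; 5-6 h with 40 μL of 440 μM stock) after 67-72 h compound exposure at 37 °C.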

C-Raf kinase (SEQ. ID NO: 3), sequence (P04049 307-648 Y340D/Y341D): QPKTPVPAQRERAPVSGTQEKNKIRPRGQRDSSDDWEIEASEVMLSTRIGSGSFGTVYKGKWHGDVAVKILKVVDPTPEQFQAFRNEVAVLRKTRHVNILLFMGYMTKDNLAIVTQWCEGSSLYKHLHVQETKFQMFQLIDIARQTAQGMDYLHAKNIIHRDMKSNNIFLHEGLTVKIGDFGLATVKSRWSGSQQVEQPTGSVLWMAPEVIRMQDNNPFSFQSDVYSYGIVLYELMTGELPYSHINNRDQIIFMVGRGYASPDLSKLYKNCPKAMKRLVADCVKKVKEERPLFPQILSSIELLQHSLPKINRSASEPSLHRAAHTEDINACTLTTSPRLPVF
B-Raf kinase (SEQ. ID NO: 2), sequence (P15056 416-766): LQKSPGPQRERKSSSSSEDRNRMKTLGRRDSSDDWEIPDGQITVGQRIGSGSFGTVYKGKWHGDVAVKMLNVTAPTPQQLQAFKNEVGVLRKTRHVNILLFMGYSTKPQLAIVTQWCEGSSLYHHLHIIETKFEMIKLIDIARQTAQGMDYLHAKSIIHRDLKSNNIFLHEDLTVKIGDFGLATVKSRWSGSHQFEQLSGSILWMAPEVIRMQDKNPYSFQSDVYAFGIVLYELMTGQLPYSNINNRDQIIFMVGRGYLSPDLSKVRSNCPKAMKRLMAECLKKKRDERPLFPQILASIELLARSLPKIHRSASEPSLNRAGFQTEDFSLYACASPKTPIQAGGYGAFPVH
B-Raf (V600E) (SEQ. ID NO: 4) kinase, sequence (P15056 416-766 V600E): as the sequence (P15056 416-766) above, with V185E counted along it

Structure (SMILES)	IC50 [1]	IC50 [2]	IC50 [3]	IC50 [4]
CNC(=O)c1cc(-c2cnnc(-c3cc(NC(=O)c4ccnc(C5CC5)c4)cnc3C)c2)ccn1 [Example 317]	500 to 1000 nM	100 to 500 nM	1000 to 10000 nM	1000 to 10000 nM
CNC(=O)c1cc(-c2nccc(-c3cc(NC(=O)c4ccnc(C(F)(F)F)c4)ccc3C)n2)ccn1 [Example 25]	≤ 100 nM	≤ 100 nM	≤ 100 nM	
CNC(=O)c1cc(-c2cnnc(-c3cc(NC(=O)c4cn(C(C)(C)C)nn4)ccc3C)c2)ccn1 [Example 366]	100 to 500 nM	100 to 500 nM	100 to 500 nM	1000 to 10000 nM
CC(=O)Nc1cc(-c2cccc(-c3cc(NC(=O)c4ccnc(C(F)(F)F)c4)ccc3C)c2)ncn1 [Example 30]	≤ 100 nM	≤ 100 nM	≤ 100 nM	≤ 100 nM
COCCNC(=O)c1cc(-c2cnnc(-c3cc(NC(=O)c4cccc(C5CC5)c4)ccc3C)c2)ccn1 [Example 365]	100 to 500 nM	100 to 500 nM	500 to 1000 nM	1000 to 10000 nM
Cc1nc(-c2ccnc(NC(=O)C3CC3)c2)cc(-c2cc(NC(=O)c3ccnc(C4CC4)c3)cnc2C)n1 [Example 287]	≤ 100 nM	≤ 100 nM	≤ 100 nM	500 to 1000 nM
CC(=O)Nc1cc(-c2cc(-c3cc(C(=O)Nc4ccnc(C(F)(F)F)c4)ccc3C)ccn2)ccn1 [Example 26]	≤ 100 nM	≤ 100 nM	≤ 100 nM	
CC(=O)Nc1cc(-c2nccc(-c3cc(NC(=O)c4ccnc(C(F)(F)F)c4)ccc3C)n2)ccn1 [Example 24]	≤ 100 nM	≤ 100 nM	≤ 100 nM	
Cc1ncc(NC(=O)C2CCOC(C)(C)C2)cc1-c1cccc(-c2cc(NC(=O)C3CC3)ncn2)c1 (centres unmarked) [Example 348]	100 to 500 nM	≤ 100 nM	≤ 100 nM	1000 to 10000 nM
Cc1ccc(NC(=O)c2cc(C(C)(C)C)no2)cc1-c1cc(-c2ccnc(NC(=O)C3CC3)c2)cnn1 [Example 367]	≤ 100 nM	≤ 100 nM	≤ 100 nM	100 to 500 nM
CNC(=O)c1cc(-c2cnnc(-c3cc(NC(=O)c4ccnc(C5CC5)c4)ccc3C)c2)ccn1 [Example 326]	100 to 500 nM	≤ 100 nM	100 to 500 nM	1000 to 10000 nM
CO[C@H]1CC[C@H](C(=O)Nc2cnc(C)c(-c3cccc(-c4cc(NC(=O)C5CC5)ncn4)c3)c2)CC1 [Example 347]	500 to 1000 nM	100 to 500 nM	≤ 100 nM	1000 to 10000 nM
CNC(=O)c1cc(-c2cc(-c3cc(NC(=O)CCC(C)(C)C#N)ccc3C)ccn2)ccn1 [Example 357]	100 to 500 nM	≤ 100 nM	500 to 1000 nM	1000 to 10000 nM
Cc1ccc(NC(=O)c2ccnc(C(C)(C)C#N)c2)cc1-c1ccnc(-c2ccnc3c2CC(=O)N3)c1 [Example 23]	≤ 100 nM	≤ 100 nM	≤ 100 nM	100 to 500 nM
Cc1ccc(NC(=O)c2ccnc(C(C)(C)C#N)c2)cc1-c1nccc(-c2ccnc3c2CC(=O)N3)n1 [Example 22]	≤ 100 nM	≤ 100 nM	≤ 100 nM	
Cc1ncc(NC(=O)c2cncc(C(F)F)c2)cc1-c1cccc(-c2cc(NC(=O)C3CC3)ncn2)c1 [Example 280]	≤ 100 nM	≤ 100 nM	≤ 100 nM	100 to 500 nM
CNC(=O)c1cc(-c2cnnc(-c3cc(NC(=O)c4ccnc(C(F)F)c4)cnc3C)c2)ccn1 [Example 330]	500 to 1000 nM	100 to 500 nM	1000 to 10000 nM	1000 to 10000 nM
CNC(=O)c1cc(-c2cc(-c3cc(C(=O)Nc4ccnc(C(F)(F)F)c4)ccc3C)ccn2)ccn1 [Example 31]	100 to 500 nM	≤ 100 nM	≤ 100 nM	
CC(=O)Nc1cc(-c2cncc(-c3cc(NC(=O)c4ccnc(C(F)(F)F)c4)ccc3C)n2)ccn1 [Example 29]	≤ 100 nM	≤ 100 nM	≤ 100 nM	≤ 100 nM
CO[C@H]1CC[C@H](C(=O)Nc2ccc(C)c(-c3ccnc(-c4ccnc(NC(=O)C5CC5)c4)n3)c2)CC1 [Example 341]	100 to 500 nM	≤ 100 nM	≤ 100 nM	
CC(=O)Nc1cc(-c2cc(-c3cc(NC(=O)c4ccnc(C(F)(F)F)c4)ccc3C)cn(C)c2=O)ccn1 [Example 21, N-(3-(2′-acetamido-1-methyl-2-oxo-1,2-dihydro-[3,4′-bipyridin]-5-yl)-4-methylphenyl)-2-(trifluoromethyl)isonicotinamide]	≤ 100 nM	≤ 100 nM	≤ 100 nM	
CC(=O)Nc1cc(-c2cccc(-c3cc(NC(=O)c4ccnc(C(F)(F)F)c4)ccc3C)c2)ccn1 [Example 28]	≤ 100 nM	≤ 100 nM	≤ 100 nM	

Second part, the compound after the results:

IC50 [1]	IC50 [2]	IC50 [3]	IC50 [4]	Structure (SMILES)
≤ 100 nM	≤ 100 nM	≤ 100 nM	100 to 500 nM	COC(=O)Nc1cc(-c2cc(-c3cc(NC(=O)c4ccnc(C(C)(C)F)c4)c(F)cc3C)ccn2)ccn1 [Example 302]
≤ 100 nM	≤ 100 nM	1000 to 10000 nM	100 to 500 nM	COC(=O)Nc1cc(-c2cc(-c3cc(NC(=O)c4ccnc(C(F)F)c4)cnc3C)ccn2)ccn1 [Example 313]
≤ 100 nM	≤ 100 nM	≤ 100 nM	≤ 100 nM	COC(=O)Nc1cc(-c2cc(-c3cc(NC(=O)c4ccnc(C(C)(C)C#N)c4)cnc3C)ccn2)ccn1 [Example 297]
≤ 100 nM	≤ 100 nM	500 to 1000 nM	100 to 500 nM	COC(=O)Nc1cc(-c2cc(-c3cc(NC(=O)c4ccnc(C(F)(F)F)c4)cnc3C)ccn2)ccn1 [Example 312]
≤ 100 nM	≤ 100 nM	≤ 100 nM	500 to 1000 nM	COC(=O)Nc1cc(-c2cccc(-c3cc(NC(=O)c4ccnc(C(C)(C)C#N)c4)cnc3C)c2)ccn1 [Example 282]
100 to 500 nM	≤ 100 nM	1000 to 10000 nM	1000 to 10000 nM	COC(=O)Nc1cc(-c2cnnc(-c3cc(NC(=O)c4ccnc(C5CC5)c4)cnc3C)c2)ccn1 [Example 362]
≤ 100 nM	≤ 100 nM	≤ 100 nM	500 to 1000 nM	Cc1ccc(NC(=O)c2ccnc(C(C)(C)C#N)c2)cc1-c1cc(-c2ccnc3[nH]ccc23)cnn1 [Example 369]
≤ 100 nM	≤ 100 nM	≤ 100 nM	100 to 500 nM	COC(=O)Nc1cc(-c2cnnc(-c3cc(NC(=O)c4ccnc(C(C)(C)C#N)c4)c(F)cc3C)c2)ccn1 [Example 299]
1000 to 10000 nM	100 to 500 nM	100 to 500 nM	1000 to 10000 nM	CNC(=O)c1cc(-c2cnnc(-c3cc(NC(=O)c4ccnc(C(C)(C)F)c4)cnc3C)c2)ccn1 [Example 309]
≤ 100 nM	≤ 100 nM	≤ 100 nM	≤ 100 nM	Cc1cc(F)c(NC(=O)c2ccnc(C(C)(C)F)c2)cc1-c1ccnc(-c2ccnc(NC(=O)C3CC3)c2)c1 [Example 300]
≤ 100 nM	≤ 100 nM	≤ 100 nM	100 to 500 nM	Cc1ccc(NC(=O)c2ccnc(C3CC3)c2)cc1-c1cc(-c2ccnc(NC(=O)C3CC3)c2)cnn1 [Example 331]
100 to 500 nM	100 to 500 nM	≤ 100 nM	100 to 500 nM	CNC(=O)c1cc(-c2cnnc(-c3cc(NC(=O)c4ccnc(C(C)(C)F)c4)ccc3C)c2)ccn1 [Example 325]
500 to 1000 nM	100 to 500 nM	≤ 100 nM	100 to 500 nM	CNC(=O)c1cc(-c2cnnc(-c3cc(NC(=O)c4ccnc(C(C)(C)OC)c4)ccc3C)c2)ccn1 [Example 328]
≤ 100 nM	≤ 100 nM	≤ 100 nM	100 to 500 nM	COC(=O)Nc1cc(-c2nccc(-c3cc(NC(=O)c4ccnc(C(C)(C)F)c4)c(F)cc3C)n2)ccn1 [Example 304]
100 to 500 nM	100 to 500 nM	≤ 100 nM	500 to 1000 nM	CNC(=O)c1cc(-c2cnnc(-c3cc(NC(=O)c4ccnc(C(C)(C)C#N)c4)ccc3C)c2)ccn1 [Example 314]
500 to 1000 nM	100 to 500 nM	1000 to 10000 nM	1000 to 10000 nM	COC(=O)Nc1cc(-c2cnnc(-c3cc(NC(=O)c4ccnc(C(F)F)c4)cnc3C)c2)ccn1 [Example 363]
≤ 100 nM	≤ 100 nM	≤ 100 nM	100 to 500 nM	COC(=O)Nc1cc(-c2cnnc(-c3cc(NC(=O)c4ccnc(C(C)(C)C#N)c4)ccc3C)c2)ccn1 [Example 305]
≤ 100 nM	≤ 100 nM	≤ 100 nM	100 to 500 nM	COC(=O)Nc1cc(-c2cc(-c3cc(NC(=O)c4ccnc(C(C)(C)F)c4)cnc3C)ccn2)ccn1 [Example 323]
